According to ChEMBL document CHEMBL1148091, “Cyclopsychotride A, a biologically active, 31-residue cyclic peptide isolated from Psychotria longipes” (J Nat Prod, 1994):

Experiments:
[1] = Displacement of [125I]NT from neurotensin receptor in human HT-29 cells; type: cell-based
HT-29 = assay: Antagonist activity at neurotensin receptor in human HT-29 cells assessed as effect on NT-induced intracellular Ca2+ increase by spectrofluorimetry; type: functional, cell-based

- IC50 [1]: 3 µM
Compound: CC[C@H](C)[C@@H]1NC(=O)[C@@H]2CCCN2C(=O)[C@H](CS)NC(=O)CNC(=O)[C@H](CCC(=O)O)NC(=O)[C@H](CO)NC(=O)[C@H](CS)NC(=O)[C@H](C(C)C)NC(=O)[C@H](Cc2ccccc2)NC(=O)[C@H]([C@@H](C)CC)NC(=O)[C@@H]2CCCN2C(=O)[C@H](CS)NC(=O)[C@H]([C@H](C)O)NC(=O)[C@H](C(C)C)NC(=O)[C@H]([C@H](C)O)NC(=O)[C@H](C)NC(=O)[C@H](CC(C)C)NC(=O)[C@H](CC(C)C)NC(=O)CNC(=O)[C@H](CS)NC(=O)[C@H](CO)NC(=O)[C@H](CS)NC(=O)[C@H](CCCCN)NC(=O)[C@H](CO)NC(=O)[C@H](CCCCN)NC(=O)[C@H](C(C)C)NC(=O)[C@H](CS)NC(=O)[C@H](Cc2ccc(O)cc2)NC(=O)[C@H](CCCCN)NC(=O)[C@H](CC(N)=O)NC(=O)[C@H](CO)NC1=O [CYCLOPSYCHOTRIDE A]
- Activity (HT-29): Dose-dependent effect
